Reference: patent US5534536A, “Fused phenol derivatives” (Ono Pharmaceuticals Co. Ltd., priority 1993, dated 1996)
Structures can show the parent of a compound that is named as a salt.

Experiments:
human 5-lipoxygenase = target: T1, human 5-lipoxygenase (Homo sapiens, UniProt P09917); assay: Effect on human 5-lipoxygenase activity (cytosol fraction of polymorphonuclear leukocytes); assay type: biochemical; details: human PMN leukocyte cytosol fraction; 14C-arachidonic acid; 30° C., 1 min, pH 7.4
T1 construct: cytosol fraction of polymorphonuclear leukocytes prepared from human peripheral blood; endogenous in cells; host or cells: polymorphonuclear leukocytes from human peripheral blood (cytosol fraction)
T1 sequence (P09917 1-674): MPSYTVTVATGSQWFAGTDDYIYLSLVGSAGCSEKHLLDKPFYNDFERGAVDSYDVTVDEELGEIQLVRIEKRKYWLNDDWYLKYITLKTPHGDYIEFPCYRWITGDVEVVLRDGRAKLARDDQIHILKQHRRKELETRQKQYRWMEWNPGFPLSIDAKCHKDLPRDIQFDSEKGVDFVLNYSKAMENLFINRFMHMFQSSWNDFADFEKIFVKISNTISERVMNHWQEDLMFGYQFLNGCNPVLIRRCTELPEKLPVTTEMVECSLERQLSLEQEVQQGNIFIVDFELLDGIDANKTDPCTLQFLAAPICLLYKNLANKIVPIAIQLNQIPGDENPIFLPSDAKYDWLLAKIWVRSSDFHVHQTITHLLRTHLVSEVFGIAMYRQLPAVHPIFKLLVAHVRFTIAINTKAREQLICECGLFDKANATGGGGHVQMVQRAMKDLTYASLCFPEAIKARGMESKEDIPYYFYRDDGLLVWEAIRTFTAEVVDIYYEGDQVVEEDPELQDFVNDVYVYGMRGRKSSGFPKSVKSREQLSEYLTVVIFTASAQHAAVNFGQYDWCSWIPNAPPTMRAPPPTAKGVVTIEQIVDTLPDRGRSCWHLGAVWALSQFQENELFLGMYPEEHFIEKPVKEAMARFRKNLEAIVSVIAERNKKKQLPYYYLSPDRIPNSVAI
Procedure: i) Effect on human 5-lipoxygenase activity
The assay mixture consisted of 85 μl of potassium/phosphate buffer (pH 7.4) containing 1.18 mM of calcium ion, 5 μl of cytosol fraction of polymorphonuclear leukocytes prepared from human peripheral blood and 5 μl of test compound. The reaction was initiated by the addition of 5 μl of 1 mM ^14 C-arachidonic acid after 5 min equilibration period. The incubation was carried out at 30° C. for 1 min and terminated by the addition of 300 μl of a ice-cold mixture of diethyl ether/methanol/1M citric acid (30/4/1). The mixture was mixed vigorously and centrifuged at 1700 G for 2 min at 4° C. The resultant organic layer was treated with sodium borohydride, kept cold for more than 10 min and then evaporated to dryness under gentle stream of nitrogen. After 200 μl of a mixture of diethyl ether/methanol (30/4) was added to the test tube, the contents were extracted by the addition of 100 μl of 1M citric acid followed by centrifugation (1700 G for 2 min at 4° C.). The products in the upper layer were chromatographed on silica gel thin-layer with a solvent system of diethyl ether/petroleum ether/acetic acid (85/15/0.01) and autoradiographed on X-ray film. The arachidonic acid metabolites and residual substrate were quantified by chromatoscanner. The 5-lipoxygenase activity was calculated by subtracting the conversion rate of total radioactivity into 15-hydroxy eicosatetraenoic acid from total radioactivity. The effect of compounds tested were expressed as percentage inhibition against 5-lipoxygenase activity in the vehicle (50% ethanol solution)-treated group.

[1] = target: T2, human thromboxane A2 synthetase (Homo sapiens, UniProt P24557); assay: Effect on human thromboxane A2 synthetase activity (washed platelets); assay type: cell-based; details: conversion of 14C-arachidonic acid into TXB2, 37° C., 2 min
T2 construct: Washed platelet was prepared from citrate-treated [1/9 (v/v)] human peripheral blood; endogenous in cells; host or cells: washed platelets from human peripheral blood
T2 sequence (P24557 1-533): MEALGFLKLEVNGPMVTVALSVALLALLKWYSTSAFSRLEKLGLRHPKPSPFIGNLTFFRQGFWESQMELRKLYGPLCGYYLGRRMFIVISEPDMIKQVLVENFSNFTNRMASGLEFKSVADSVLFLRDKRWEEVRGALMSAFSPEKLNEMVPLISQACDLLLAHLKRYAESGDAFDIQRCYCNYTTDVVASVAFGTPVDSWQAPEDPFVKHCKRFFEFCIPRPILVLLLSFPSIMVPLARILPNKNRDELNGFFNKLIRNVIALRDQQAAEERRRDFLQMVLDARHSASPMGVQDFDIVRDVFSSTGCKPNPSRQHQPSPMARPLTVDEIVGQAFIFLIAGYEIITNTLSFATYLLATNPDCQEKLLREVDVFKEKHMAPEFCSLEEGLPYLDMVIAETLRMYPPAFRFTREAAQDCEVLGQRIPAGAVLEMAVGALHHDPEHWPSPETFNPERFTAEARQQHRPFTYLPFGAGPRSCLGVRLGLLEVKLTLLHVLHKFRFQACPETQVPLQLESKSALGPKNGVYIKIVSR
Procedure: ii) Effect on human thromboxane A2 synthetase activity
Washed platelet was prepared from citrate-treated [1/9 (v/v)] human peripheral blood and suspended in Ca^++ -free Krebs-Henseleit solution (pH 7.4) at a concentration of 10.8×10^7 cells/mi. The assay mixture contained 185 μl of cell suspension, 5 μl of test compound and 10 μl of 100 μM ^14 C-arachidonic acid. Before the reaction was started by the addition of ^14 C-arachidonic acid, the other components were equilibrated for 2 min at 37 ° C. The incubation was carried out at 37° C. for 2 min and terminated by the addition of 300 μl of a mixture of diethyl ether/methanol/1M citric acid (30/4/1). The contents were mixed and then centrifuged for 2 min at 1700 G at 4° C. The products in the resultant organic layer were chromatographed on silica gel thin-layer using a solvent system of a mixture of ethyl acetate/isooctane/acetic acid/H2 O (110/50/20/100) and then autoradiographed on X-ray film. The arachidonic acid metabolites and residual substrate were quantified by chromatoscanner. TXA2 synthetase activity was expressed as the conversion rate of total radioactivity into thromboxane B2 (TXB2), a stable metabolite of TXA2. The effects of compounds tested were expressed as percentage inhibition against the conversion rate of total radioactivity into TXB2 in vehicle (50% ethanol solution)-treated group.

[2] = tested on: leukotriene B4 (LTB4) production from human whole blood; assay: Effect on leukotriene B4 (LTB4) production from human whole blood; assay type: cell-based; details: Ca ionophore A23187 stimulated, plasma LTB4 by EIA
Procedure: (§1) iii) Effect on leukotriene B4 (LTB4) and TXB2 production from human whole blood […] The incubation was carried out for 5 min and terminated by centrifugation (12,000 rpm for 1-2 min). Resultant plasma was stocked at -70° C. until determination of the levels of LTB4 and TXB2. Plasma levels of LTB4 and TXB2 were determined by commercially available EIA kits (Cayman Chemical Company) following partial purification. The effect of compound tested was expressed as percentage inhibition against the amounts of LTB4 and TXB2 generated in vehicle (50% ethanol solution)-treated group.

[3] = tested on: TXB2 production from human whole blood; assay: Effect on TXB2 production from human whole blood; assay type: cell-based; details: Ca ionophore A23187 stimulated, plasma TXB2 by EIA
Procedure: as §1

[4] = tested on: lipid peroxides (TBARS) in rat liver homogenate; assay: Antioxidant action (lipid peroxides as TBARS in rat liver homogenate); assay type: biochemical, Sprague-Dawley rat; details: FeCl2-initiated, 1 hr at 37° C.
Procedure: Male Sprague-Dawley rat fasted overnight was anesthetized with diethyl ether, and liver was perfused, isolated and homogenized with 1.15% KCl (10% homogenate). The assay mixture contained 200 μl of liver homogenate, 5 μl of test compound and 10 μl of 4.4 mM FeCl2. The reaction was initiated by the addition of FeCl2, and the incubation was carried out for 1 hr at 37° C. The amounts of lipid peroxides produced during this incubation period were determined as thiobarbituric acid reactive substances (TBARS) according to the method described by OHKAWA et. al. (Analytical Biochemistry, 95, 351-358, 1979). The effects of compounds tested were expressed as percentage inhibition against the amounts of TBARS produced in vehicle (50% ethanol solution)-treated group.

| SMILES | IC50 (human 5-lipoxygenase) [nM] | IC50 [1] [nM] | IC50 [4] [nM] | inhibition at 10 µM [2] [%] | inhibition at 10 µM [3] [%] |
| --- | --- | --- | --- | --- | --- |
| Cc1c(O)c(C(C)C)c2c(c1CCn1ccnc1)OC(C)(C)C2 [Example 2, 5-Hydroxy-2,2,6-trimethyl-4-isopropyl-7(2-(1-imidazolyl)ethyl)-2,3-dihydrobenzofuran hydrochloride] |  |  |  | 74 | 92 |
| COC(C)(C)Cc1c(O)c(C)c(CCn2ccnc2)c2c1CC(C)(C)O2 [Example 17] |  |  |  | 22 | 36 |
| Cc1c(O)c(CCCSc2ccccc2)c2c(c1CCn1ccnc1)OC(C)(C)C2 [2(v)] |  |  |  | 61 | 89 |
| Cc1c(O)c(CC(C)C)c2c(c1CCn1ccnc1)OC1(CCCC1)C2 [2(x)] |  |  |  | 70 | 82 |

Second part, led by results:

| IC50 (human 5-lipoxygenase) [nM] | IC50 [1] [nM] | IC50 [4] [nM] | SMILES | inhibition at 10 µM [2] [%] | inhibition at 10 µM [3] [%] |
| --- | --- | --- | --- | --- | --- |
| 460 | 1000 |  | Cc1c(O)c(CCCn2ccnc2)cc2c1CC(C)(C)O2 [Example 13] |  |  |
| 1100 | 550 | 3700 | Cc1c(O)c(C)c2c(c1CCCOc1cccnc1)OC(C)(C)CC2 [Example 11] |  |  |
| 690 | 8600 | 2600 | CC1(C)CCc2c(Cn3ccnc3)c(O)c3ccccc3c2O1 [4(e)] |  |  |
| 480 | 1400 | 4000 | COCOc1c(C)c(CCCOc2cccnc2)c2c(c1C)CCC(C)(C)O2 [Example 10] |  |  |
